Read-outs that look alike come from different tables or passages of the source.
Assays:
[1] = system: Staphylococcus aureus S13E; assay: MIC, standard agar-dilution assay (Table II); assay type: cell-based; design: unit not given here
Experimental: (§1) The MIC's in Table II were determined by standard agar-dilution assays. The MIC's in Table III were obtained using a conventional broth-dilution microtiter test.

[2] = system: Staphylococcus aureus V41; assay: MIC, standard agar-dilution assay (Table II); assay type: cell-based; design: unit not given here; settings: Staphylococcus aureus V41, penicillin-resistant strain
Experimental: as §1

[3] = system: Staphylococcus aureus X1.1; assay: MIC, standard agar-dilution assay (Table II); assay type: cell-based; design: unit not given here
Experimental: as §1

[4] = system: Staphylococcus aureus X400; assay: MIC, standard agar-dilution assay (Table II); assay type: cell-based; design: unit not given here; settings: Staphylococcus aureus X400, methicillin-resistant strain
Experimental: as §1

[5] = system: Staphylococcus epidermidis EPI1; assay: MIC, standard agar-dilution assay (Table II); assay type: cell-based; design: unit not given here
Experimental: as §1

[6] = system: Staphylococcus epidermidis EPI2; assay: MIC, standard agar-dilution assay (Table II); assay type: cell-based; design: unit not given here
Experimental: as §1

[7] = system: Streptococcus Group D 9960; assay: MIC, standard agar-dilution assay (Table II); assay type: cell-based; design: unit not given here
Experimental: as §1

[8] = system: Streptococcus Group D X66; assay: MIC, standard agar-dilution assay (Table II); assay type: cell-based; design: unit not given here
Experimental: as §1

[9] = system: Streptococcus pneumoniae Park I; assay: MIC, standard agar-dilution assay (Table II); assay type: cell-based; design: unit not given here
Experimental: as §1

[10] = system: Streptococcus pyogenes C203; assay: MIC, standard agar-dilution assay (Table II); assay type: cell-based; design: unit not given here
Experimental: as §1

Mycoplasma gallisepticum = assay: MIC, broth-dilution microtiter test (Table III); assay type: cell-based; design: unit not given here
Experimental: as §1

Mycoplasma hyorhinis = assay: MIC, broth-dilution microtiter test (Table III); assay type: cell-based; design: unit not given here
Experimental: as §1

Mycoplasma synoviae = assay: MIC, broth-dilution microtiter test (Table III); assay type: cell-based; design: unit not given here
Experimental: as §1

[11] = system: Pasteurella haemolytica 22C; assay: MIC, broth-dilution microtiter test (Table III); assay type: cell-based; design: unit not given here
Experimental: as §1

[12] = system: Pasteurella haemolytica 23C; assay: MIC, broth-dilution microtiter test (Table III); assay type: cell-based; design: unit not given here
Experimental: as §1

[13] = system: Pasteurella haemolytica 41D; assay: MIC, broth-dilution microtiter test (Table III); assay type: cell-based; design: unit not given here
Experimental: as §1

[14] = system: Pasteurella multocida 17E; assay: MIC, broth-dilution microtiter test (Table III); assay type: cell-based; design: unit not given here; settings: bovine isolate
Experimental: as §1

[15] = system: Pasteurella multocida 22A; assay: MIC, broth-dilution microtiter test (Table III); assay type: cell-based; design: unit not given here
Experimental: as §1

[16] = system: Pasteurella multocida 40G; assay: MIC, broth-dilution microtiter test (Table III); assay type: cell-based; design: unit not given here
Experimental: as §1

[17] = system: Pasteurella multocida 60A; assay: MIC, broth-dilution microtiter test (Table III); assay type: cell-based; design: unit not given here; settings: avian isolate
Experimental: as §1

[18] = system: Pasteurella multocida 68C; assay: MIC, broth-dilution microtiter test (Table III); assay type: cell-based; design: unit not given here
Experimental: as §1

Staphylococcus aureus = assay: MIC, broth-dilution microtiter test (Table III); assay type: cell-based; design: unit not given here
Experimental: as §1

Streptococcus sp. 80 = assay: MIC, broth-dilution microtiter test (Table III); assay type: cell-based; design: unit not given here
Experimental: as §1

[19] = system: Streptococcus pyogenes C203; assay: ED50 in mice with experimental infections (Table IV); assay type: in vivo; settings: Streptococcus pyogenes, doses given 1 and 4 hours postinfection
Experimental: The OMT ester derivatives of this invention have shown in vivo antimicrobial activity against experimental bacterial infections caused by gram-positive bacteria. When two doses of test compound were administered to mice with experimental infections, the activity observed was measured as an ED50 value [effective dose in mg/kg to protect 50% of the test animals: see Warren Wick, et al., J. Bacteriol. 81, 233-235 (1961)].
^a mg/kg × 2; doses given 1 and 4 hours postinfection

Pasteurella multocida = assay: Treatment of Pasteurella infections in chicks (Table V); assay type: in vivo, one-day-old chicks; settings: Pasteurella multocida, sc, 4 h; 30 mg/kg by subcutaneous injection one and four hours post challenge; read-out: Deaths in Treated Chicks/Number Treated (converted)
Method in brief: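 One-day-old chicks challenged subcutaneously with avian P. multocida (0.1 ml of 10^-3 dilution of 20-hour tryptose broth culture). Esters given at 30 mg/kg subcutaneously at 1 and 4 hours post challenge. Untreated infected controls, ten per group.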

[20] = system: Haemophilus influenzae Holt; assay: MIC, standard agar-dilution assay (Table II); assay type: cell-based; design: unit not given here; settings: ampicillin-sensitive strain
Experimental: as §1

[21] = system: Haemophilus influenzae R252; assay: MIC, standard agar-dilution assay (Table II); assay type: cell-based; design: unit not given here; settings: Haemophilus influenzae R252, ampicillin-resistant strain
Experimental: as §1

[22] = C203, oral, read-out: ED50, Oral
[23] = C203, sc, subcutaneous, read-out: ED50, Subcutaneous

## CCC1OC(=O)CC(O)C(C)C(OC2OC(C)C(O)C(N(C)C)C2O)C(CC=O)CC(C)C(=O)C=CC(C)=CC1COC(=O)CSc1ccc(Cl)c(Cl)c1 (stereo not shown) [Compound 38, 23-O-[(3,4-Dichlorophenylthio)acetyl]-OMT]
[1]
  minimal inhibitory concentration (MIC): 0.125
[2]
  minimal inhibitory concentration (MIC): 0.25
[3]
  minimal inhibitory concentration (MIC): 0.125
[4]
  minimal inhibitory concentration (MIC): 0.25
[5]
  minimal inhibitory concentration (MIC): 0.25
[6]
  minimal inhibitory concentration (MIC): 0.25
[7]
  minimal inhibitory concentration (MIC): 0.125
[8]
  minimal inhibitory concentration (MIC): 0.125
[9]
  minimal inhibitory concentration (MIC): 0.03
[10]
  minimal inhibitory concentration (MIC): 0.06
Mycoplasma gallisepticum
  minimal inhibitory concentration (MIC): < 0.05
Mycoplasma hyorhinis
  minimal inhibitory concentration (MIC): 3.12
Mycoplasma synoviae
  minimal inhibitory concentration (MIC): 0.097
[11]
  minimal inhibitory concentration (MIC): 3.12
[12]
  minimal inhibitory concentration (MIC): 6.25
[13]
  minimal inhibitory concentration (MIC): 6.25
[14]
  minimal inhibitory concentration (MIC): 1.56
[15]
  minimal inhibitory concentration (MIC): 3.12
[16]
  minimal inhibitory concentration (MIC): 1.56
[17]
  minimal inhibitory concentration (MIC): 1.56
[18]
  minimal inhibitory concentration (MIC): 1.56
Staphylococcus aureus
  minimal inhibitory concentration (MIC): < 0.05
Streptococcus sp. 80
  minimal inhibitory concentration (MIC): < 0.05
[19]; [22]
  ED50: > 150 mg/kg
Pasteurella multocida
  mortality at 30 mg/kg: 10%

## CCC1OC(=O)CC(O)C(C)C(OC2OC(C)C(OC(C)=O)C(N(C)C)C2OC(C)=O)C(CC=O)CC(C)C(=O)C=CC(C)=CC1COC(=O)CSc1ccc(Cl)c(Cl)c1 (stereo not shown) [Compound 37, 2',4'-Di-O-acetyl-23-O-[(3,4-dichlorophenylthio)acetyl]-OMT]
[1]
  minimal inhibitory concentration (MIC): 2
[2]
  minimal inhibitory concentration (MIC): 4
[3]
  minimal inhibitory concentration (MIC): 2
[4]
  minimal inhibitory concentration (MIC): 4
[5]
  minimal inhibitory concentration (MIC): 2
[6]
  minimal inhibitory concentration (MIC): 4
[7]
  minimal inhibitory concentration (MIC): 2
[8]
  minimal inhibitory concentration (MIC): 2
[9]
  minimal inhibitory concentration (MIC): 0.5
[10]
  minimal inhibitory concentration (MIC): 0.5
Mycoplasma gallisepticum
  minimal inhibitory concentration (MIC): < 0.05
Mycoplasma hyorhinis
  minimal inhibitory concentration (MIC): 6.25
Mycoplasma synoviae
  minimal inhibitory concentration (MIC): 0.78
[11]
  minimal inhibitory concentration (MIC): 6.25
[12]
  minimal inhibitory concentration (MIC): 6.25
[13]
  minimal inhibitory concentration (MIC): 12.5
[14]
  minimal inhibitory concentration (MIC): 1.56
[15]
  minimal inhibitory concentration (MIC): 6.25
[16]
  minimal inhibitory concentration (MIC): 3.12
[17]
  minimal inhibitory concentration (MIC): 3.12
[18]
  minimal inhibitory concentration (MIC): 0.78
Staphylococcus aureus
  minimal inhibitory concentration (MIC): 0.39
Streptococcus sp. 80
  minimal inhibitory concentration (MIC): < 0.05
[19]; [22]
  ED50: > 150 mg/kg
Pasteurella multocida
  mortality at 30 mg/kg: 100%

## CCC1OC(=O)CC(O)C(C)C(OC2OC(C)C(O)C(N(C)C)C2O)C(CC=O)CC(C)C(=O)C=CC(C)=CC1COC(=O)[C@H](NC(=O)OC(C)(C)C)c1ccccc1 (stereo partly drawn) [Compound 40, 23-O-(D-t-BOC-Phenylglycyl)-OMT]
[20]
  minimal inhibitory concentration (MIC): 2
[21]
  minimal inhibitory concentration (MIC): 2
[1]
  minimal inhibitory concentration (MIC): 0.5
[2]
  minimal inhibitory concentration (MIC): 1
[3]
  minimal inhibitory concentration (MIC): 0.5
[4]
  minimal inhibitory concentration (MIC): 1
[5]
  minimal inhibitory concentration (MIC): 0.5
[6]
  minimal inhibitory concentration (MIC): 0.5
[7]
  minimal inhibitory concentration (MIC): 0.5
[8]
  minimal inhibitory concentration (MIC): 0.5
[9]
  minimal inhibitory concentration (MIC): 0.06
[10]
  minimal inhibitory concentration (MIC): 0.125
Mycoplasma gallisepticum
  minimal inhibitory concentration (MIC): < 0.05
Mycoplasma hyorhinis
  minimal inhibitory concentration (MIC): 0.39
[11]
  minimal inhibitory concentration (MIC): 12.5
[12]
  minimal inhibitory concentration (MIC): 12.5
[13]
  minimal inhibitory concentration (MIC): 12.5
[14]
  minimal inhibitory concentration (MIC): 6.25
[15]
  minimal inhibitory concentration (MIC): 12.5
[16]
  minimal inhibitory concentration (MIC): 6.25
[17]
  minimal inhibitory concentration (MIC): 6.25
[18]
  minimal inhibitory concentration (MIC): 6.25
Staphylococcus aureus
  minimal inhibitory concentration (MIC): 0.78
Streptococcus sp. 80
  minimal inhibitory concentration (MIC): 0.195
[19]; [22]
  ED50: 116 mg/kg
[19]; [23]
  ED50: 5 mg/kg
Pasteurella multocida
  mortality at 30 mg/kg: 100%

## CCC1OC(=O)CC(O)C(C)C(OC2OC(C)C(O)C(N(C)C)C2O)C(CC=O)CC(C)C(=O)C=CC(C)=CC1COC(=O)COc1ccccc1 (stereo not shown) [Compound 36, 23-O-Phenoxyacetyl-OMT]
[20]
  minimal inhibitory concentration (MIC): 0.5
[21]
  minimal inhibitory concentration (MIC): 0.5
[1]
  minimal inhibitory concentration (MIC): 0.125
[2]
  minimal inhibitory concentration (MIC): 0.25
[3]
  minimal inhibitory concentration (MIC): 0.125
[4]
  minimal inhibitory concentration (MIC): 0.25
[5]
  minimal inhibitory concentration (MIC): 0.125
[6]
  minimal inhibitory concentration (MIC): 0.25
[7]
  minimal inhibitory concentration (MIC): 0.125
[8]
  minimal inhibitory concentration (MIC): 0.125
[9]
  minimal inhibitory concentration (MIC): 0.03
[10]
  minimal inhibitory concentration (MIC): 0.06
Mycoplasma gallisepticum
  minimal inhibitory concentration (MIC): < 0.05
Mycoplasma hyorhinis
  minimal inhibitory concentration (MIC): 1.56
[11]
  minimal inhibitory concentration (MIC): 3.12
[12]
  minimal inhibitory concentration (MIC): 3.12
[13]
  minimal inhibitory concentration (MIC): 3.12
[14]
  minimal inhibitory concentration (MIC): 1.56
[15]
  minimal inhibitory concentration (MIC): 3.12
[16]
  minimal inhibitory concentration (MIC): 1.56
[17]
  minimal inhibitory concentration (MIC): 1.56
[18]
  minimal inhibitory concentration (MIC): 0.78
Staphylococcus aureus
  minimal inhibitory concentration (MIC): 0.39
Streptococcus sp. 80
  minimal inhibitory concentration (MIC): < 0.05
[19]; [22]
  ED50: > 150 mg/kg
[19]; [23]
  ED50: 6 mg/kg
Pasteurella multocida
  mortality at 30 mg/kg: 10%

## CCC1OC(=O)CC(O)C(C)C(OC2OC(C)C(O)C(N(C)C)C2O)C(CC=O)CC(C)C(=O)C=CC(C)=CC1COC(=O)[C@H](O)c1ccccc1 (stereo partly shown) [Compound 42, 23-O-Mandeloyl-OMT]
[1]
  minimal inhibitory concentration (MIC): 0.25
[2]
  minimal inhibitory concentration (MIC): 0.5
[3]
  minimal inhibitory concentration (MIC): 0.25
[4]
  minimal inhibitory concentration (MIC): 0.5
[5]
  minimal inhibitory concentration (MIC): 0.25
[6]
  minimal inhibitory concentration (MIC): 0.5
[7]
  minimal inhibitory concentration (MIC): 0.25
[8]
  minimal inhibitory concentration (MIC): 0.25
[9]
  minimal inhibitory concentration (MIC): 0.06
[10]
  minimal inhibitory concentration (MIC): 0.125
Mycoplasma gallisepticum
  minimal inhibitory concentration (MIC): 0.39
Mycoplasma hyorhinis
  minimal inhibitory concentration (MIC): 12.5
Mycoplasma synoviae
  minimal inhibitory concentration (MIC): 0.195
[11]
  minimal inhibitory concentration (MIC): 6.25
[12]
  minimal inhibitory concentration (MIC): 6.25
[13]
  minimal inhibitory concentration (MIC): 3.12
[14]
  minimal inhibitory concentration (MIC): 6.25
[15]
  minimal inhibitory concentration (MIC): 6.25
[16]
  minimal inhibitory concentration (MIC): 1.56
[17]
  minimal inhibitory concentration (MIC): 3.12
[18]
  minimal inhibitory concentration (MIC): 3.12
Staphylococcus aureus
  minimal inhibitory concentration (MIC): 0.78
Streptococcus sp. 80
  minimal inhibitory concentration (MIC): 0.39
[19]; [22]
  ED50: > 150 mg/kg
[19]; [23]
  ED50: 11 mg/kg
Pasteurella multocida
  mortality at 30 mg/kg: 0%

From patent US4401660A, “Ester derivatives of 5-O-mycaminosyl tylonolide and method of using same” (Eli Lilly and Company, priority 1981, dated 1983)
